From US10870647B2, “Imidazopyridine derivative, method for preparing same, and pharmaceutical composition containing same as active ingredient for preventing or treating cancer” (DAEGU-GYEONGBUK MEDICAL INNOVATION FOUNDATION, priority 2016, dated 2020)

What was measured:
Test in all cases: Kinase selectivity, scanMAX Kinase assay panel (DiscoverX), % control at 1 uM
Assay type in all cases: binding
[1] = target: T1, scanMAX Kinase assay panel (Homo sapiens, UniProt P21127); conditions: CDC2L1; 1 uM; read-out: Percent Control (%)
T1 construct: purchased DiscoverX
T1 sequence (P21127 whole entry): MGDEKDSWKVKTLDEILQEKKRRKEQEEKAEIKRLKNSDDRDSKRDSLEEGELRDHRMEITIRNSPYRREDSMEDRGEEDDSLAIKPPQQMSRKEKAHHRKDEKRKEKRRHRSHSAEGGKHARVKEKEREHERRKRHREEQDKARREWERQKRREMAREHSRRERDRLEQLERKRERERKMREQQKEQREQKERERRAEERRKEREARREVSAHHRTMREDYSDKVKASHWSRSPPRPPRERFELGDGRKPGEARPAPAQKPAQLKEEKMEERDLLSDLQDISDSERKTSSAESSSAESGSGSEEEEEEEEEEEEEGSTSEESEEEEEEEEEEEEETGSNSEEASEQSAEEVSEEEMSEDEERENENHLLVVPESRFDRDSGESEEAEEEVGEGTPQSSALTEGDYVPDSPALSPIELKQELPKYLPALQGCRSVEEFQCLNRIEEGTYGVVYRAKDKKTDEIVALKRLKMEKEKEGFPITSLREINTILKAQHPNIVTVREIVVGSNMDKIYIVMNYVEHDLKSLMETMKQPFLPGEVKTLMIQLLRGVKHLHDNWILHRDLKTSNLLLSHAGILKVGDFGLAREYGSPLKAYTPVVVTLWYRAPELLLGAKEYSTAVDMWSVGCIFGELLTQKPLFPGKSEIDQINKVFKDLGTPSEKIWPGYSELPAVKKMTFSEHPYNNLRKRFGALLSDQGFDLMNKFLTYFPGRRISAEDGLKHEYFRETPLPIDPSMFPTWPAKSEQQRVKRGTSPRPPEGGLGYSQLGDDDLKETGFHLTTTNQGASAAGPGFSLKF
Outline: (§1)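 Compounds were tested at 1 uM in DMSO against each enzyme in the panel. Percent control was calculated as (compound − positive control)/(negative control − positive control) × 100, and a compound was scored active on a kinase when this value fell below 35.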

[2] = target: T2, scanMAX Kinase assay panel (Homo sapiens, UniProt P07332); conditions: FES; 1 uM; read-out: Percent Control (%)
T2 construct: purchased DiscoverX
T2 sequence (P07332 whole entry): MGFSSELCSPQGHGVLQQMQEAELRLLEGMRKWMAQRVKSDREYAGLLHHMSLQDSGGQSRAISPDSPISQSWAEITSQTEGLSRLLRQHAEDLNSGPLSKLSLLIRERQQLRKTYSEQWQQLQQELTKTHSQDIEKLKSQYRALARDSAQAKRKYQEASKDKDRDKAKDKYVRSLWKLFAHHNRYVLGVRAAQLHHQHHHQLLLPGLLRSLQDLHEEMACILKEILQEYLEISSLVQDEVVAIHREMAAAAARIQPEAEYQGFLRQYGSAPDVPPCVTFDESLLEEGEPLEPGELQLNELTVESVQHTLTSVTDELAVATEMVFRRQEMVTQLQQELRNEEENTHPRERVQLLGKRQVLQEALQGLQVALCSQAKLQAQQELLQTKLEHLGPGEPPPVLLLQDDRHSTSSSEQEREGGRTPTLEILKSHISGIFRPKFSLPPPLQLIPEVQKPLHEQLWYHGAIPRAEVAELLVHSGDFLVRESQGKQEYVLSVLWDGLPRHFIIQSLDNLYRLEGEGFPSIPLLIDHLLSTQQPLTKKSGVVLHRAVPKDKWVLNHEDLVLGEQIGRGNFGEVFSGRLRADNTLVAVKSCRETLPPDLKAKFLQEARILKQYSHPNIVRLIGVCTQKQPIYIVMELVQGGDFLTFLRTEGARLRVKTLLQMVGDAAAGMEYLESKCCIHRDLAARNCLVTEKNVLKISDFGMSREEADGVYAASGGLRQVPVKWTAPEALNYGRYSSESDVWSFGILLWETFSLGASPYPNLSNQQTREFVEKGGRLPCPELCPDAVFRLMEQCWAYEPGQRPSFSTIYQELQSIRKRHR
Outline: as §1

[3] = target: T3, scanMAX Kinase assay panel (Homo sapiens, UniProt P49760); conditions: CLK2; 1 uM; read-out: Percent Control (%)
T3 construct: purchased DiscoverX
T3 sequence (P49760 whole entry): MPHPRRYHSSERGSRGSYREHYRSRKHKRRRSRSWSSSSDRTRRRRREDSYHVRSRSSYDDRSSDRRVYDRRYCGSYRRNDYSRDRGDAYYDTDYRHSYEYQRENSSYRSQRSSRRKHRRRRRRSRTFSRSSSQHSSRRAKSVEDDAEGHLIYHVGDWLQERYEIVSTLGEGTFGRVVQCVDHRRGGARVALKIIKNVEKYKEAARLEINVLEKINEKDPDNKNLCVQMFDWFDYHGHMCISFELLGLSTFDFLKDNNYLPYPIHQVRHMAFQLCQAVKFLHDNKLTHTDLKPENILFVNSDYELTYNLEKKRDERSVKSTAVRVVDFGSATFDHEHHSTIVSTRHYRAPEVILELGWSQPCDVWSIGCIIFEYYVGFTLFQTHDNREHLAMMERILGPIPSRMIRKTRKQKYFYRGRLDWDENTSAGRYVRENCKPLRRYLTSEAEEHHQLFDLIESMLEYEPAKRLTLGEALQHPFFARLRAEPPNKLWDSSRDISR
Outline: as §1

[4] = target: T4, scanMAX Kinase assay panel (Homo sapiens, UniProt Q8NE63); conditions: HIPK4; 1 uM; read-out: Percent Control (%)
T4 construct: purchased DiscoverX
T4 sequence (Q8NE63 1-616): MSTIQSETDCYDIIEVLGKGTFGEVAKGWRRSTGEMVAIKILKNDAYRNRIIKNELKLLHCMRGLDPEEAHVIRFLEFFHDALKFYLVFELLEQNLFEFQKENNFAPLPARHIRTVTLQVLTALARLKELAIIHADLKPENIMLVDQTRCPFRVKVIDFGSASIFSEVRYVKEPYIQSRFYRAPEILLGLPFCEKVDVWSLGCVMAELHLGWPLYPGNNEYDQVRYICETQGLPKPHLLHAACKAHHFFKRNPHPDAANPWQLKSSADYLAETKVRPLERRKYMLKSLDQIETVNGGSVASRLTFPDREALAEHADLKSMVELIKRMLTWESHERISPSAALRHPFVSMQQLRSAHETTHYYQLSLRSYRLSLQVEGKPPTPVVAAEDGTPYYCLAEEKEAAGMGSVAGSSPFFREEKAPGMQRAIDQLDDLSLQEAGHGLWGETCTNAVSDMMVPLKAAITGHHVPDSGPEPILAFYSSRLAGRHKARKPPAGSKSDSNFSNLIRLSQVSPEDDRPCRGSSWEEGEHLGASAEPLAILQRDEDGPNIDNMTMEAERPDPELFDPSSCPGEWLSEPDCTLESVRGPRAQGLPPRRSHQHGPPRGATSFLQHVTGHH
Outline: as §1

[5] = target: T5, scanMAX Kinase assay panel (Homo sapiens, UniProt P27361); conditions: ERK1; 1 uM; read-out: Percent Control (%)
T5 construct: purchased DiscoverX
T5 sequence (P27361 whole entry): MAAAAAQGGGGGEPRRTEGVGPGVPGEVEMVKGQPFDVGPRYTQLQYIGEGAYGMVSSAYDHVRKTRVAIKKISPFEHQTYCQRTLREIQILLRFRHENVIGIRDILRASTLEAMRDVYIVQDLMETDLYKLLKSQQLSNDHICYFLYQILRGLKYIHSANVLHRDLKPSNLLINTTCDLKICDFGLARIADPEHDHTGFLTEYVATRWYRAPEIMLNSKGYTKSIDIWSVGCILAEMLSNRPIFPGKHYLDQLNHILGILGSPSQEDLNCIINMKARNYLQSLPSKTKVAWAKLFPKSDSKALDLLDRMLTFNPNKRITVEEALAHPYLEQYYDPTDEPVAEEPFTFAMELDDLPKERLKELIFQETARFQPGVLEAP
Outline: as §1

[6] = target: T6, scanMAX Kinase assay panel (Homo sapiens, UniProt Q15759); conditions: p38-beta; 1 uM; read-out: Percent Control (%)
T6 construct: purchased DiscoverX
T6 sequence (Q15759 whole entry): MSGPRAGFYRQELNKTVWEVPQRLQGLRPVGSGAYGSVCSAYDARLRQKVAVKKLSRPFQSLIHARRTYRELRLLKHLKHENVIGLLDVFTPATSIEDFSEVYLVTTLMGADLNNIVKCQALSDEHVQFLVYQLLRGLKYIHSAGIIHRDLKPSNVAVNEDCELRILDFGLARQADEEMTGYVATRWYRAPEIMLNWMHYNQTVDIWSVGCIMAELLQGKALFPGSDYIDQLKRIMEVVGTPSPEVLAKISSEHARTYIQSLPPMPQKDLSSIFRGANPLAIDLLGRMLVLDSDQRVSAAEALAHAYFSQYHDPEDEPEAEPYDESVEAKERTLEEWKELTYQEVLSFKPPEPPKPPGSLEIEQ
Outline: as §1

[7] = target: T7, scanMAX Kinase assay panel (Homo sapiens, UniProt Q96L34); conditions: MARK4; 1 uM; read-out: Percent Control (%)
T7 construct: purchased DiscoverX
T7 sequence (Q96L34 1-752): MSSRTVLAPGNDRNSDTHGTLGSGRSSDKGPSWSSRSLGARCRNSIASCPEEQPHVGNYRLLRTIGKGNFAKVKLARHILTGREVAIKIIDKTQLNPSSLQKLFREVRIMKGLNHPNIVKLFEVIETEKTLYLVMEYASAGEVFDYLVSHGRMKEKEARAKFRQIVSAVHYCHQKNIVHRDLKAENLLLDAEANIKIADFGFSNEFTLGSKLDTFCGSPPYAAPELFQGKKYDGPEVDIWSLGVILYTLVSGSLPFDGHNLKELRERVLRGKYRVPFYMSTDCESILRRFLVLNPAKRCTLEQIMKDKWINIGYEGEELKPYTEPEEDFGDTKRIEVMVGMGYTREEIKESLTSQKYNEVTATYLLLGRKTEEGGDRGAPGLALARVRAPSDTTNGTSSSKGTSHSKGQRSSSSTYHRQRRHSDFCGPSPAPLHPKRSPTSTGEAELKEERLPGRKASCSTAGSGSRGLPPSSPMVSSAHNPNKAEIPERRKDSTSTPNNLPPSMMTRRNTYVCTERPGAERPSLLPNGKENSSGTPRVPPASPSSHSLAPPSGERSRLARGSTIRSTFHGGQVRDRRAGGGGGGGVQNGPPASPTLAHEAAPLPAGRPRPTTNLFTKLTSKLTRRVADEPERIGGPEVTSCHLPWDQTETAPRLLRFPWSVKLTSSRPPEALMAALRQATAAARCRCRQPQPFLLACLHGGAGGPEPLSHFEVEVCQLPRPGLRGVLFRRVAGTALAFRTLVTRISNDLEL
Outline: as §1

[8] = target: T8, scanMAX Kinase assay panel (Homo sapiens, UniProt Q00536); conditions: PCTK1; 1 uM; read-out: Percent Control (%)
T8 construct: purchased DiscoverX
T8 sequence (Q00536 whole entry): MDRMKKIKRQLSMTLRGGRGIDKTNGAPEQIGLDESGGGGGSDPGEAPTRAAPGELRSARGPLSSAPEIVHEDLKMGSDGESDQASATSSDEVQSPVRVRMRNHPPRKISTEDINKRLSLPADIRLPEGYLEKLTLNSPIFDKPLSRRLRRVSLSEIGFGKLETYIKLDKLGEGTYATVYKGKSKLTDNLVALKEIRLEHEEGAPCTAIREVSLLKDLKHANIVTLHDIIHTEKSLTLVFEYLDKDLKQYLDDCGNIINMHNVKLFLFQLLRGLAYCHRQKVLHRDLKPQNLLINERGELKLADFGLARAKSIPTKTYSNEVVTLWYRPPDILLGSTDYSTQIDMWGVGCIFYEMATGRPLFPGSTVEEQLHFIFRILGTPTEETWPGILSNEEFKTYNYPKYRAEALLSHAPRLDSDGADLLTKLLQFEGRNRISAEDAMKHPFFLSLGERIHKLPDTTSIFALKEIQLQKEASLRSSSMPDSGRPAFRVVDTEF
Outline: as §1

[9] = target: T9, scanMAX Kinase assay panel (Homo sapiens, UniProt Q07002); conditions: PCTK3; 1 uM; read-out: Percent Control (%)
T9 construct: purchased DiscoverX
T9 sequence (Q07002 whole entry): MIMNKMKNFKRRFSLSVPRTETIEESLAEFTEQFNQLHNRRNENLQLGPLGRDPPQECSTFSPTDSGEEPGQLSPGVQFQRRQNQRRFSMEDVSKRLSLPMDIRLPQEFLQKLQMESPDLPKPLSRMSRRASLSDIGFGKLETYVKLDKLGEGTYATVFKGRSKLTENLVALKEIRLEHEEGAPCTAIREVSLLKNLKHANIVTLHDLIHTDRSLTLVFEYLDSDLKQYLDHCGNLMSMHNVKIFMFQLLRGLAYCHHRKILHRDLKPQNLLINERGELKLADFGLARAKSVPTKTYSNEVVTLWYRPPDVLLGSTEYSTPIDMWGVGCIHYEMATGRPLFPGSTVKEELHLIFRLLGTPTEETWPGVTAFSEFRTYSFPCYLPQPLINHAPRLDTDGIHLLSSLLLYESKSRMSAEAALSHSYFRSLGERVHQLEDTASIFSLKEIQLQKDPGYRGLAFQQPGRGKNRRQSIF
Outline: as §1

[10] = target: T10, scanMAX Kinase assay panel (Homo sapiens, UniProt P24723); conditions: PRKCH; 1 uM; read-out: Percent Control (%)
T10 construct: purchased DiscoverX
T10 sequence (P24723 whole entry): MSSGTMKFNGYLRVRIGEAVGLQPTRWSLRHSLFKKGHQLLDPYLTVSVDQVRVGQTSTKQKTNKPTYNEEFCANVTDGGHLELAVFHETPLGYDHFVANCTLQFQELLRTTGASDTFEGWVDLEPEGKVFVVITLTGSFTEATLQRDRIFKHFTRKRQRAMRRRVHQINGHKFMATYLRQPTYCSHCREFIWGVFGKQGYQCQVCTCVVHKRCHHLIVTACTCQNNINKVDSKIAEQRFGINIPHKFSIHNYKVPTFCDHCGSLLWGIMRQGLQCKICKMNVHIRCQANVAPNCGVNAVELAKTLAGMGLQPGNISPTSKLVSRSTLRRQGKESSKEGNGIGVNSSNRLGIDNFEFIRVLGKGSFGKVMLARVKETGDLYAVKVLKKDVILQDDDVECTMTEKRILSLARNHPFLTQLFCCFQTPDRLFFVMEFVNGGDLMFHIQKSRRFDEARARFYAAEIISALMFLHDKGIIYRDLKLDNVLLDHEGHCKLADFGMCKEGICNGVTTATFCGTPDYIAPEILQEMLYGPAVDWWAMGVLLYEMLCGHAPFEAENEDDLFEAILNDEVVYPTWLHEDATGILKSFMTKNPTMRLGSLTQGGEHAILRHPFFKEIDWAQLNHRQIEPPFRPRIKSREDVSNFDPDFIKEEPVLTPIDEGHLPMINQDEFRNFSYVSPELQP
Outline: as §1

[11] = target: T11, scanMAX Kinase assay panel (Homo sapiens, UniProt P35590); conditions: TIE1; 1 uM; read-out: Percent Control (%)
T11 construct: purchased DiscoverX
Outline: as §1

SMILES	remaining binding at 1 µM [1] [%]	remaining binding at 1 µM [2] [%]	remaining binding at 1 µM [3] [%]	remaining binding at 1 µM [4] [%]	remaining binding at 1 µM [5] [%]	remaining binding at 1 µM [6] [%]	remaining binding at 1 µM [7] [%]	remaining binding at 1 µM [8] [%]	remaining binding at 1 µM [9] [%]	remaining binding at 1 µM [10] [%]	remaining binding at 1 µM [11] [%]
Cc1ccc(C(=O)Nc2ccc(CN3CCN(C)CC3)c(C(F)(F)F)c2)cc1C#Cc1cnc2c(Nc3cnn(C)c3)cccn12 [Example 1, 4-methyl-3-((8-((1-methyl-1H-pyrazol-4-yl)amino)imidazo[1,2-a]pyridin-3-yl)ethynyl)-N-(4-((4-methylpiperazin-1-yl)methyl)-3-(trifluoromethyl)phenyl)benzamide]	20	0	64	2	87	0	100	93	60	100	2
Cc1cn(-c2cc(NC(=O)c3ccc(C)c(C#Cc4cnc5c(Nc6cnn(C)c6)cccn45)c3)cc(C(F)(F)F)c2)cn1 [Example 12, 4-methyl-N-(3-(4-methyl-1H-imidazol-1-yl)-5-(trifluoromethyl)phenyl)-3-((8-((1-methyl-1H-pyrazol-4-yl)amino)imidazo[1,2-a]pyridin-3-yl)ethynyl)benzamide]	80	6	91	66	100	6	86	100	84	100	26
Cc1ccc(NC(=O)C2(C(=O)Nc3ccc(F)cc3)CC2)cc1C#Cc1cnc2c(Nc3cnn(C(C)C)c3)cccn12 [Example 78]	100	100	100	84	100	88	97	100	100	100	27
